Laboratory results from the NIST ThermoML archive (doi:10.1021/je500804j).

Experiment: mn = molality of the nth substance listed, in mol/kg
Details: 101 kPa, Liquid, Alternating current cell with electrodes

CCCCCCCC[N+](C)(C)CCCCCCCCCCCC[N+](C)(C)CCCCCCCC.[Br-].[Br-] + O
Details	electrical conductivity [S/m]
308.15 K, m1 = 0.01941	0.3482
308.15 K, m1 = 0.02017	0.3578
308.15 K, m1 = 0.02093	0.3674
308.15 K, m1 = 0.02167	0.3751
308.15 K, m1 = 0.0224	0.3838
308.15 K, m1 = 0.02312	0.3913
308.15 K, m1 = 0.02383	0.4003
308.15 K, m1 = 0.02453	0.4069
308.15 K, m1 = 0.02522	0.4161
308.15 K, m1 = 0.02589	0.421
308.15 K, m1 = 0.02722	0.4336
308.15 K, m1 = 0.02787	0.4365
308.15 K, m1 = 0.02851	0.4424
308.15 K, m1 = 0.02956	0.4571
308.15 K, m1 = 0.03058	0.4621
308.15 K, m1 = 0.03158	0.4749
308.15 K, m1 = 0.03256	0.48
308.15 K, m1 = 0.03351	0.489
308.15 K, m1 = 0.03536	0.5074
308.15 K, m1 = 0.03625	0.5158
308.15 K, m1 = 0.03712	0.5223
308.15 K, m1 = 0.03798	0.527
308.15 K, m1 = 0.03964	0.541
308.15 K, m1 = 0.04123	0.5548
308.15 K, m1 = 0.04275	0.5671
308.15 K, m1 = 0.04422	0.5777
308.15 K, m1 = 0.04563	0.5885
308.15 K, m1 = 0.04699	0.5986
308.15 K, m1 = 0.04829	0.6068
308.15 K, m1 = 0.05077	0.6251
308.15 K, m1 = 0.05194	0.6322
313.15 K, m1 = 0.00357	0.06951
313.15 K, m1 = 0.00692	0.1517
313.15 K, m1 = 0.01009	0.2177
313.15 K, m1 = 0.01308	0.2687
313.15 K, m1 = 0.01591	0.3262
313.15 K, m1 = 0.01726	0.3465
313.15 K, m1 = 0.01859	0.3645
313.15 K, m1 = 0.01987	0.3859
313.15 K, m1 = 0.02113	0.4024
313.15 K, m1 = 0.02187	0.4121
313.15 K, m1 = 0.02259	0.4248
313.15 K, m1 = 0.02331	0.4317
313.15 K, m1 = 0.02401	0.4367
313.15 K, m1 = 0.02471	0.4441
313.15 K, m1 = 0.02539	0.4521
313.15 K, m1 = 0.02606	0.4597
313.15 K, m1 = 0.02673	0.467
313.15 K, m1 = 0.02803	0.4808
313.15 K, m1 = 0.02866	0.4878
313.15 K, m1 = 0.02929	0.4944
313.15 K, m1 = 0.03052	0.5075
313.15 K, m1 = 0.03112	0.5138
313.15 K, m1 = 0.03171	0.5209
313.15 K, m1 = 0.0323	0.5266
313.15 K, m1 = 0.03326	0.5361
313.15 K, m1 = 0.03419	0.5442
313.15 K, m1 = 0.03511	0.5535
313.15 K, m1 = 0.036	0.5625
313.15 K, m1 = 0.03688	0.5732
313.15 K, m1 = 0.03774	0.5794
313.15 K, m1 = 0.03858	0.5898
313.15 K, m1 = 0.0394	0.5956
313.15 K, m1 = 0.041	0.6125
313.15 K, m1 = 0.04253	0.6257
313.15 K, m1 = 0.044	0.637
313.15 K, m1 = 0.04541	0.6512
313.15 K, m1 = 0.04678	0.665
313.15 K, m1 = 0.04809	0.6744
313.15 K, m1 = 0.04935	0.6838
313.15 K, m1 = 0.05057	0.6958
313.15 K, m1 = 0.05175	0.7055
318.15 K, m1 = 0.00371	0.07542
318.15 K, m1 = 0.00722	0.164
318.15 K, m1 = 0.01052	0.245
318.15 K, m1 = 0.01364	0.3143
318.15 K, m1 = 0.01659	0.3687
318.15 K, m1 = 0.01801	0.3868
318.15 K, m1 = 0.01939	0.4168
318.15 K, m1 = 0.02073	0.43
318.15 K, m1 = 0.02204	0.4546
318.15 K, m1 = 0.0228	0.465
318.15 K, m1 = 0.02356	0.4755
318.15 K, m1 = 0.02431	0.4857
318.15 K, m1 = 0.02577	0.5063
318.15 K, m1 = 0.02648	0.5133
318.15 K, m1 = 0.02718	0.5232
318.15 K, m1 = 0.02787	0.5323
318.15 K, m1 = 0.02856	0.5407
318.15 K, m1 = 0.02923	0.5499
318.15 K, m1 = 0.02989	0.5578
318.15 K, m1 = 0.03119	0.5732
318.15 K, m1 = 0.03245	0.5881
318.15 K, m1 = 0.03307	0.5997
318.15 K, m1 = 0.03368	0.6044
318.15 K, m1 = 0.03428	0.6091
318.15 K, m1 = 0.03488	0.6155
318.15 K, m1 = 0.03546	0.6234
318.15 K, m1 = 0.03604	0.6307
318.15 K, m1 = 0.03661	0.6379
318.15 K, m1 = 0.03717	0.6434
318.15 K, m1 = 0.03828	0.655
318.15 K, m1 = 0.03918	0.6646
318.15 K, m1 = 0.04006	0.6728
318.15 K, m1 = 0.04092	0.681
318.15 K, m1 = 0.04176	0.6915
318.15 K, m1 = 0.04259	0.6986
318.15 K, m1 = 0.04419	0.7143
318.15 K, m1 = 0.04573	0.732
318.15 K, m1 = 0.04721	0.7463
318.15 K, m1 = 0.04863	0.7603
318.15 K, m1 = 0.05001	0.7719
318.15 K, m1 = 0.05133	0.7858
323.15 K, m1 = 0.00357	0.08471
323.15 K, m1 = 0.00693	0.1849
323.15 K, m1 = 0.01009	0.2444
323.15 K, m1 = 0.01308	0.3157
323.15 K, m1 = 0.01591	0.3898
323.15 K, m1 = 0.01859	0.436
323.15 K, m1 = 0.02113	0.483
323.15 K, m1 = 0.02355	0.5236
323.15 K, m1 = 0.02585	0.561
323.15 K, m1 = 0.02803	0.5895
323.15 K, m1 = 0.02909	0.6082
323.15 K, m1 = 0.03012	0.623
323.15 K, m1 = 0.03113	0.6393
323.15 K, m1 = 0.03211	0.6494
323.15 K, m1 = 0.03307	0.6638
323.15 K, m1 = 0.03401	0.6772
323.15 K, m1 = 0.03512	0.6913
323.15 K, m1 = 0.03566	0.6951
323.15 K, m1 = 0.03619	0.6993
323.15 K, m1 = 0.03671	0.7037
323.15 K, m1 = 0.03775	0.7171
323.15 K, m1 = 0.03825	0.7266
323.15 K, m1 = 0.03875	0.7317
323.15 K, m1 = 0.03925	0.7354
323.15 K, m1 = 0.03973	0.7413
323.15 K, m1 = 0.04069	0.7517
323.15 K, m1 = 0.04116	0.7566
323.15 K, m1 = 0.04162	0.7617
323.15 K, m1 = 0.04208	0.7694
323.15 K, m1 = 0.04254	0.7737
323.15 K, m1 = 0.04328	0.7801
323.15 K, m1 = 0.04401	0.7896
323.15 K, m1 = 0.04472	0.8
323.15 K, m1 = 0.04542	0.8049
323.15 K, m1 = 0.04611	0.8129
323.15 K, m1 = 0.04678	0.8211
323.15 K, m1 = 0.04745	0.831
323.15 K, m1 = 0.0481	0.8348
323.15 K, m1 = 0.04936	0.8479
323.15 K, m1 = 0.05058	0.8638
323.15 K, m1 = 0.05176	0.8724
